In publication PMC11995724, “Antibiotic target discovery by integrated phenotypic and activity-based profiling of electrophilic fragments” (Cell chemical biology, 2025):
Counter-ions that a name gives are not always drawn.

Assay: in vitro
Conditions: human, hek293t cells

| Structure (SMILES) | viability at 48 h, 25 µM |
| --- | --- |
| O=C(CCl)Nc1ccc(S(=O)(=O)N2CCCC2)cc1 [4-F08, 2-chloro-N-[4-(pyrrolidine-1-sulfonyl)phenyl]acetamide] | 1.07% |
| O=C(CCl)Nc1cc(S(=O)(=O)N2CCCCC2)ccc1Cl [4-F09, 2-chloro-N-[2-chloro-5-(piperidine-1-sulfonyl)phenyl]acetamide] | 0.505% |
| CCc1cccc(CC)c1NC(=O)CCl [4-F10, 2-chloro-N-(2,6-diethylphenyl)acetamide] | 99.1% |
| O=C(CCl)N(CC1=CCSC1)c1ccccc1 [4-F11, 2-chloro-N-[(2,5-dihydrothiophen-3-yl)methyl]-N-phenylacetamide] | 0.548% |
| COc1ccc(-c2csc(NC(=O)CCl)n2)c(OC)c1 [4-F12, 2-chloro-N-[4-(2,4-dimethoxyphenyl)-1,3-thiazol-2-yl]acetamide] | 0.886% |
| CC(Cl)C(=O)NCC1COc2ccccc2O1 (centres unmarked) [4-F13, 2-chloro-N-[(2,3-dihydro-1,4-benzodioxin-2-yl)methyl]propanamide] | 91.4% |
| O=C(CCl)Nc1ccc(OC(F)F)c(Cl)c1 [4-F14, 2-chloro-N-[3-chloro-4-(difluoromethoxy)phenyl]acetamide] | 0.982% |
| O=C(CCl)Nc1nnc(SCc2ccccc2)s1 [4-F15, N-[5-(benzylsulfanyl)-1,3,4-thiadiazol-2-yl]-2-chloroacetamide] | 0.76% |
| O=C(CCl)N1CCN(CC=Cc2ccccc2)CC1 [4-F16, 2-chloro-1-[4-(3-phenylprop-2-en-1-yl)piperazin-1-yl]ethan-1-one hydrochloride] | 0.223% |
| COc1ccc(Cc2cnc(NC(=O)CCl)s2)cc1 [4-F17, 2-chloro-N-{5-[(4-methoxyphenyl)methyl]-1,3-thiazol-2-yl}acetamide] | -0.0636% |
| CC(Cl)C(=O)Nc1ccc(OC(F)F)c(Cl)c1 (centres unmarked) [4-F18, 2-chloro-N-[3-chloro-4-(difluoromethoxy)phenyl]propanamide] | 91.5% |
| CCc1ccc(Cc2cnc(NC(=O)CCl)s2)cc1 [4-F19, 2-chloro-N-{5-[(4-ethylphenyl)methyl]-1,3-thiazol-2-yl}acetamide] | 0.0785% |
| COc1ccc(-n2c(C)c(C)c(C#N)c2NC(=O)CCl)cc1 [4-F20, 2-chloro-N-[3-cyano-1-(4-methoxyphenyl)-4,5-dimethyl-1H-pyrrol-2-yl]acetamide] | 0.583% |
| Cc1cc(NC(=O)CCl)c([N+](=O)[O-])cc1C [4-F21, 2-chloro-N-(4,5-dimethyl-2-nitrophenyl)acetamide] | 112% |
| O=C(CCl)NCc1ccccc1S(=O)(=O)N1CCOCC1 [4-F22, 2-chloro-N-{[2-(morpholine-4-sulfonyl)phenyl]methyl}acetamide] | 2.15% |
| Cc1ccc(Sc2ccc(NC(=O)CCl)cc2)cc1C [4-G03, 2-chloro-N-{4-[(3,4-dimethylphenyl)sulfanyl]phenyl}acetamide] | -0.101% |
| O=C(CCl)NC(c1ccccc1)c1ccc(Cl)cc1 (centres unmarked) [4-G04, 2-chloro-N-[(4-chlorophenyl)(phenyl)methyl]acetamide] | -0.0119% |
| Cc1cc(NC(=O)CCl)n(-c2ccccc2)n1 [4-G05, 2-chloro-N-(3-methyl-1-phenyl-1H-pyrazol-5-yl)acetamide] | 0.983% |
| CC(Cl)C(=O)Nc1ccc2c(c1)C(=O)c1ccccc1C2=O (centres unmarked) [4-G06, 2-chloro-N-(9,10-dioxo-9,10-dihydroanthracen-2-yl)propanamide] | 58.6% |

| Structure (SMILES) | viability at 48 h, 25 µM |
| --- | --- |
| CC(=O)c1ccc(NC(=O)CCl)cc1 [4-G07, N-(4-acetylphenyl)-2-chloroacetamide] | 0.0514% |
| O=C(CCl)NCc1ccccc1CS(=O)(=O)N1CCOCC1 [4-G08, 2-chloro-N-({2-[(morpholine-4-sulfonyl)methyl]phenyl}methyl)acetamide] | 0.79% |
| COc1cc(NC(=O)CCl)cc(OC)c1 [4-G09, 2-chloro-N-(3,5-dimethoxyphenyl)acetamide] | 8.6% |
| O=C(CCl)Nc1ccccc1C(=O)Nc1ccc(Cl)cc1 [4-G10, 2-(2-chloroacetamido)-N-(4-chlorophenyl)benzamide] | 0.0501% |
| COc1cc(OC)c(NC(=O)CCl)cc1Cl [4-G11, 2-chloro-N-(5-chloro-2,4-dimethoxyphenyl)acetamide] | 0.402% |
| CC(Cl)C(=O)Nc1ccc(C(C)(C)C)cc1 (centres unmarked) [4-G12, N-(4-tert-butylphenyl)-2-chloropropanamide] | 66.1% |
| O=C(CCl)N(Cc1ccccc1)c1ccccc1 [4-G13, N-benzyl-2-chloro-N-phenylacetamide] | 1.23% |
| CC(Cl)C(=O)Nc1ccccc1-c1ccccc1 (centres unmarked) [4-G14, N-{[1,1'-biphenyl]-2-yl}-2-chloropropanamide] | 69.4% |
| CCCSc1nsc(NC(=O)CCl)n1 [4-G15, 2-chloro-N-[3-(propylsulfanyl)-1,2,4-thiadiazol-5-yl]acetamide] | 17.4% |
| CC1CCN(C(=O)CCl)c2cc(Cl)ccc2S1 (centres unmarked) [4-G16, 2-chloro-1-(7-chloro-2-methyl-2,3,4,5-tetrahydro-1,5-benzothiazepin-5-yl)ethan-1-one] | 0.484% |
| Cc1cc(C)c(-c2csc(NC(=O)CCl)n2)cc1C [4-G17, 2-chloro-N-[4-(2,4,5-trimethylphenyl)-1,3-thiazol-2-yl]acetamide] | 0.339% |
| CC(Cl)C(=O)Nc1ccccc1[N+](=O)[O-] (centres unmarked) [4-G18, 2-chloro-N-(2-nitrophenyl)propanamide] | 103% |
| O=C(CCl)N(CC=Cc1ccccc1)c1ccc2c(c1)OCCO2 [4-G19, 2-chloro-N-(2,3-dihydro-1,4-benzodioxin-6-yl)-N-(3-phenylprop-2-en-1-yl)acetamide] | 0.292% |
| COc1ccc(C2=NN(C(=O)CCl)C(c3cccc(C)c3)C2)cc1 (centres unmarked) [4-G20, 2-chloro-1-[3-(4-methoxyphenyl)-5-(3-methylphenyl)-4,5-dihydro-1H-pyrazol-1-yl]ethan-1-one] | -0.0034% |
| O=C(CCl)NCCSc1ccccc1 [4-G21, 2-chloro-N-[2-(phenylsulfanyl)ethyl]acetamide] | 1.68% |
| CC(=O)Nc1ccc(C2=NN(C(=O)CCl)C(c3ccco3)C2)cc1 (centres unmarked) [4-G22, N-{4-[1-(2-chloroacetyl)-5-(furan-2-yl)-4,5-dihydro-1H-pyrazol-3-yl]phenyl}acetamide] | 0.156% |
| CC(C)Cc1ccc(C(C)NC(=O)CCl)cc1 (centres unmarked) [4-H03, 2-chloro-N-{1-[4-(2-methylpropyl)phenyl]ethyl}acetamide] | 0.63% |
| CN(c1ccccc1)S(=O)(=O)c1cccc(NC(=O)CCl)c1 [4-H04, 2-chloro-N-{3-[methyl(phenyl)sulfamoyl]phenyl}acetamide] | 0.751% |
| O=C(CCl)NCCC1=CCCCC1 [4-H05, 2-chloro-N-[2-(cyclohex-1-en-1-yl)ethyl]acetamide] | 20.9% |

| Structure (SMILES) | viability at 48 h, 25 µM |
| --- | --- |
| O=C(CCl)Nc1ccc(S(=O)(=O)N2CCCCC2)cc1 [4-H06, 2-chloro-N-[4-(piperidine-1-sulfonyl)phenyl]acetamide] | 0.963% |
| O=C(CCl)N(Cc1ccc(Cl)cc1)C12CC3CC(CC(C3)C1)C2 [4-H07, N-(adamantan-1-yl)-2-chloro-N-[(4-chlorophenyl)methyl]acetamide] | -0.34% |
| O=C(CCl)Nc1nc2ccc([N+](=O)[O-])cc2s1 [4-H08, 2-chloro-N-(6-nitro-1,3-benzothiazol-2-yl)acetamide] | 0.244% |
| Cc1ccc(C)c(Sc2ccc(NC(=O)CCl)cc2)c1 [4-H09, 2-chloro-N-{4-[(2,5-dimethylphenyl)sulfanyl]phenyl}acetamide] | -0.157% |
| CSc1cccc(NC(=O)CCl)c1 [4-H10, 2-chloro-N-[3-(methylsulfanyl)phenyl]acetamide] | 1.13% |
| CC(Cl)C(=O)Nc1cc(C(C)(C)C)nn1-c1ccccc1 (centres unmarked) [4-H11, N-(3-tert-butyl-1-phenyl-1H-pyrazol-5-yl)-2-chloropropanamide] | 93% |
| COc1ccc(OC)c(-c2csc(NC(=O)CCl)n2)c1 [4-H12, 2-chloro-N-[4-(2,5-dimethoxyphenyl)-1,3-thiazol-2-yl]acetamide] | 1.27% |
| CC(Cl)C(=O)Nc1sc(-c2ccccc2)cc1C(N)=O (centres unmarked) [4-H13, 2-(2-chloropropanamido)-5-phenylthiophene-3-carboxamide] | 80.6% |
| O=C(CCl)N1CCN(CCOc2ccccc2)CC1 [4-H14, 2-chloro-1-[4-(2-phenoxyethyl)piperazin-1-yl]ethan-1-one hydrochloride] | 1.67% |
| Cc1cc(S(=O)(=O)N(C)C)cc(NC(=O)CCl)c1C [4-H15, 2-chloro-N-[5-(dimethylsulfamoyl)-2,3-dimethylphenyl]acetamide] | 1.33% |
| Cc1ccc(C(NC(=O)CCl)c2cccs2)cc1 (centres unmarked) [4-H16, 2-chloro-N-[(4-methylphenyl)(thiophen-2-yl)methyl]acetamide] | 0.348% |
| O=C(CCl)NCCSc1ccc(Cl)cc1 [4-H17, 2-chloro-N-{2-[(4-chlorophenyl)sulfanyl]ethyl}acetamide] | 0.813% |
| O=C(CCl)NCC1CN(Cc2ccccc2)CCO1 (centres unmarked) [4-H18, N-[(4-benzylmorpholin-2-yl)methyl]-2-chloroacetamide] | 87.2% |
| O=C(CCl)N1CCC(OCc2ccccc2)CC1 [4-H19, 1-[4-(benzyloxy)piperidin-1-yl]-2-chloroethan-1-one] | 0.757% |
| Cn1ccnc1C(NC(=O)CCl)c1ccccc1 (centres unmarked) [4-H20, 2-chloro-N-[(1-methyl-1H-imidazol-2-yl)(phenyl)methyl]acetamide] | 44.4% |
| Cc1ccc(CNC(=O)c2ccccc2NC(=O)CCl)cc1 [4-H21, 2-(2-chloroacetamido)-N-[(4-methylphenyl)methyl]benzamide] | 105% |
| O=C(CCl)NOCc1ccccc1 [4-H22, N-(benzyloxy)-2-chloroacetamide] | 63.3% |
| Cc1ccc(Sc2ccc(NC(=O)CCl)cc2)c(C)c1 [4-I03, 2-chloro-N-{4-[(2,4-dimethylphenyl)sulfanyl]phenyl}acetamide] | 0.0415% |
